Measured values from patent US20240122890A1, “USE OF EXOGENOUS KETONE ESTERS TO INDUCE WEIGHT LOSS IN MAMMALS” (Buck Institute for Research on Aging, priority 2021, published 2024).

Tests used:
[1] = Body weight of mice swapped to a diet containing 20% KE; assay type: in vivo, C57/BL6 mice; settings: diet containing 20% KE (by weight); n=5 female
Excerpt: Male (n=10) and female (n=10) C57/BL6 mice were fed control diet for one week. The next week n=5 male and n=5 female mice were swapped to a diet containing 20% KE (by weight) mixed into a custom-made diet.

[2] = Waking body weight with daily ketone ester consumption in a person with obesity; assay type: in vivo, human; settings: for Weight (waking body weight): daily 25 g KE
Experimental: This example describes the effect of daily ketone ester consumption in a person with obesity (BMI=42.5 kg/m^2). The subject began consuming one 25 g serving of KE each morning on Nov. 15, 2021, and maintained daily consumption each morning for 7 weeks. The KE was in a commercially available consumer-friendly beverage formulation (Juvenescence, NJ, USA). Body weight was recorded by the subject after waking each morning (see, e.g., Table 1 and FIG. 3). […] The highest body weight in this period was on Nov. 15, 2021 (288 lbs), and the lowest was on Day Dec. 21, 2021 (254 lbs), giving a total weight loss of 34 lbs (11.8% of starting body mass)

[3] = 25 g KE each morning, highest to lowest body weight

Structure (SMILES): CCCCCC(=O)OCC[C@@H](C)OC(=O)CCCCC [KE, bis hexanoyl (R)-1,3-butanediol]
- deaths [1]: Two female animals died due to rapid weight loss
- lowest body weight in this period ([2]; 25 g KE each morning, Dec. 21, 2021): 254 lbs
- highest body weight in this period ([2]; 25 g KE each morning, Nov. 15, 2021): 288 lbs
- total weight loss [2, 3]: 34 lbs
- total weight loss, % of starting body mass [2, 3]: 11.8%
- Weight (waking body weight) ([2]; 1 Dec. 2021): 272.5 lbs
- Weight (waking body weight) ([2]; 1 Jan. 2022): 258 lbs
- Weight (waking body weight) ([2]; 2 Dec. 2021): 272.5 lbs
- Weight (waking body weight) ([2]; 2 Jan. 2022): 257 lbs
- Weight (waking body weight) ([2]; 3 Dec. 2021): 272 lbs
- Weight (waking body weight) ([2]; 3 Jan. 2022): 255.5 lbs
- Weight (waking body weight) ([2]; 4 Dec. 2021): 271 lbs
- Weight (waking body weight) ([2]; 4 Jan. 2022): 255.5 lbs
- Weight (waking body weight) ([2]; 5 Dec. 2021): 270 lbs
- Weight (waking body weight) ([2]; 5 Jan. 2022): 256 lbs
- Weight (waking body weight) ([2]; 6 Dec. 2021): 268.5 lbs
- Weight (waking body weight) ([2]; 7 Dec. 2021): 267.5 lbs
- Weight (waking body weight) ([2]; 8 Dec. 2021): 267 lbs
- Weight (waking body weight) ([2]; 9 Dec. 2021): 266 lbs
- Weight (waking body weight) ([2]; 10 Dec. 2021): 265.5 lbs
- Weight (waking body weight) ([2]; 11 Dec. 2021): 264.5 lbs
- Weight (waking body weight) ([2]; 12 Dec. 2021): 264 lbs
- Weight (waking body weight) ([2]; 13 Dec. 2021): 262.5 lbs
- Weight (waking body weight) ([2]; 14 Dec. 2021): 261.5 lbs
- Weight (waking body weight) ([2]; 15 Dec. 2021): 260.5 lbs
- Weight (waking body weight) ([2]; 15 Nov. 2021): 288 lbs
- Weight (waking body weight) ([2]; 16 Dec. 2021): 258 lbs
- Weight (waking body weight) ([2]; 16 Nov. 2021): 286.5 lbs
- Weight (waking body weight) ([2]; 17 Dec. 2021): 256 lbs
- Weight (waking body weight) ([2]; 17 Nov. 2021): 284 lbs
- Weight (waking body weight) ([2]; 18 Dec. 2021): 256 lbs
- Weight (waking body weight) ([2]; 18 Nov. 2021): 283 lbs
- Weight (waking body weight) ([2]; 19 Dec. 2021): 255 lbs
- Weight (waking body weight) ([2]; 19 Nov. 2021): 283 lbs
- Weight (waking body weight) ([2]; 20 Dec. 2021): 255 lbs
- Weight (waking body weight) ([2]; 20 Nov. 2021): 282.5 lbs
- Weight (waking body weight) ([2]; 21 Dec. 2021): 254 lbs
- Weight (waking body weight) ([2]; 21 Nov. 2021): 281.5 lbs
- Weight (waking body weight) ([2]; 22 Dec. 2021): 256 lbs
- Weight (waking body weight) ([2]; 22 Nov. 2021): 279.5 lbs
- Weight (waking body weight) ([2]; 23 Dec. 2021): 258 lbs
- Weight (waking body weight) ([2]; 23 Nov. 2021): 279 lbs
- Weight (waking body weight) ([2]; 24 Dec. 2021): 257 lbs
- Weight (waking body weight) ([2]; 24 Nov. 2021): 278 lbs
- Weight (waking body weight) ([2]; 25 Dec. 2021): 258 lbs
- Weight (waking body weight) ([2]; 25 Nov. 2021 (first line of this date)): 278 lbs
- Weight (waking body weight) ([2]; 25 Nov. 2021 (second line of this date)): 276.5 lbs
- Weight (waking body weight) ([2]; 26 Dec. 2021): 260 lbs
- Weight (waking body weight) ([2]; 26 Nov. 2021): 275 lbs
- Weight (waking body weight) ([2]; 27 Dec. 2021): 258 lbs
- Weight (waking body weight) ([2]; 27 Nov. 2021): 275 lbs
- Weight (waking body weight) ([2]; 28 Dec. 2021): 257 lbs
- Weight (waking body weight) ([2]; 28 Nov. 2021): 273.5 lbs
- Weight (waking body weight) ([2]; 29 Dec. 2021): 258 lbs
- Weight (waking body weight) ([2]; 29 Nov. 2021): 273 lbs
- Weight (waking body weight) ([2]; 30 Dec. 2021): 260.5 lbs
- Weight (waking body weight) ([2]; 30 Nov. 2021): 273 lbs
- Weight (waking body weight) ([2]; 31 Dec. 2021): 260 lbs
